In brackets after ≈: the same amount, converted by molar mass. Activity calls are given as the source filed them. No cut-off for these calls is given here.
Legend:
[1] = Oral bioavailability in CD-1 mouse at 5 mg/kg administered via gavage as single dose by LC-MS/MS analysis; format: ADME, organism-based; conditions: in vivo
[2] = Half life in CD-1 mouse at 1 mg/kg, iv administered as single dose by LC-MS/MS analysis; format: ADME, organism-based; conditions: in vivo
in vitro [3] = conditions: mouse, liver microsomes
Description: Half life in mouse liver microsomes at 1 uM in presence of NADPH by LC-MS/MS analysis

[4] = Initial concentration in CD-1 mouse at 1 mg/kg, iv administered as single dose by LC-MS/MS analysis; format: ADME, organism-based; conditions: in vivo
Cytochrome P450 3A4 = Cytochrome P450 3A4 (Homo sapiens, UniProt P08684)
Description: Inhibition of CYP3A4 in human liver microsomes using midazolam as substrate preincubated for 5 mins followed by NADPH addition measured after 5 mins by LC-MS/MS analysis

[5] = AUClast in CD-1 mouse at 5 mg/kg, po administered via gavage as single dose by LC-MS/MS analysis; format: ADME, organism-based; design: dose 5 mg/kg, time 0 - last, route oral; conditions: in vivo
P3HR-1 = test: Antiproliferative activity against human P3HR1 cells after 48 hrs by CellTiter-Glo luminescence assay; format: functional, cell-based
[6] = Half life in dog liver microsomes at 1 uM in presence of NADPH by LC-MS/MS analysis; format: ADME, Canis lupus familiaris, microsome
[7] = biological target: Dual specificity mitogen-activated protein kinase kinase; MEK1/2 (Homo sapiens) (UniProt P36507+Q02750); test: Inhibition of MEK (unknown origin) at 1 uM by KINOMEscan assay relative to control; format: protein assay
Homo sapiens [8] = species on record: Homo sapiens; test: Antiproliferative activity against human GK5 cells after 48 hrs by CellTiter-Glo luminescence assay; format: functional, cell-based
K562 [9] = test: Antitumor activity against human K562 cells overexpressing GFP-fussed full length mouse eIF4E xenografted in SCID mouse assessed as tumor growth inhibition administered as qd via gavage for 14 days cotreated with 2.5 mg/kg dasatinib for 1 hr post dose; format: functional, organism-based
Mus musculus [10] = test: Down regulation of phosphorylated eIF4E in CB17 SCID mouse xenografted with human K562 cells overexpressing GFP-fussed full length mouse eIF4E at 100 mg/kg, po administered as single dose up to 8 hrs cotreated with 2.5 mg/kg dasatinib by Western blot; format: functional, organism-based
Homo sapiens [11] = species on record: Homo sapiens; test: Antiproliferative activity against human AHH1 cells after 48 hrs by CellTiter-Glo luminescence assay; format: functional, cell-based
[12] = Octanol-phosphate buffer partition coefficient, logD of compound at pH 7.4 by HPLC-UV analysis; format: physicochemical
in vitro [13] = conditions: rat, liver microsomes
Description: Half life in rat liver microsomes at 1 uM in presence of NADPH by LC-MS/MS analysis

[14] = Protein binding in human plasma at […] after 5 hrs by LC-MS/MS analysis; format: ADME, cell-free; conditions: read-out: PPB (converted)
Mus musculus [15] = test: Down regulation of phosphorylated CRKL in CB17 SCID mouse xenografted with human K562 cells overexpressing GFP-fussed full length mouse eIF4E at 100 mg/kg, po administered as single dose up to 8 hrs cotreated with 2.5 mg/kg dasatinib by Western blot; format: functional, organism-based
Mus musculus [16] = test: Toxicity in NOD/SCID mouse assessed as clinical adverse effect up to 200 mg/kg, po administered gavage treated for 7 consecutive days measured for 7 days post last dose; format: organism-based; conditions: in vivo, 168 h
in vivo = conditions: CD-1, mouse, po, 5 mg/kg
Description: Tmax in CD-1 mouse at 5 mg/kg, po administered via gavage as single dose by LC-MS/MS analysis

Mus musculus [17] = test: Toxicity in NOD/SCID mouse assessed as change in weight loss up to 200 mg/kg, po administered gavage treated for 7 consecutive days measured for 7 days post last dose; format: organism-based; conditions: in vivo, 168 h
Mus musculus [18] = test: Toxicity in SCID mouse xenografted with human K562 cells overexpressing GFP-fussed full length mouse eIF4E assessed as weight loss at 25 to 100 mg/kg, po qd administered via gavage for 14 days cotreated with 2.5 mg/kg dasatinib for 1 hr post dose; format: organism-based; conditions: in vivo
K562 [19] = test: Antitumor activity against human K562 cells overexpressing GFP-fussed full length mouse eIF4E xenografted in SCID mouse assessed as tumor growth inhibition at 100 mg/kg, po qd administered via gavage for 14 days relative to control; conditions: 336 h, read-out: TGI
[20] = Half life in CD-1 mouse at 5 mg/kg, po administered via gavage as single dose by LC-MS/MS analysis; format: ADME, organism-based; conditions: in vivo
[21] = Permeability of the compound by PAMPA; format: ADME; conditions: read-out: permeability
Cytochrome P450 2D6 = Cytochrome P450 2D6 (Homo sapiens, UniProt P10635); test: Inhibition of CYP2D6 in human liver microsomes using dextromethorphan as substrate preincubated for 5 mins followed by NADPH addition by LC-MS/MS analysis; format: ADME
DOHH-2 = test: Antiproliferative activity against human DOHH2 cells after 48 hrs by CellTiter-Glo luminescence assay; format: functional, cell-based
[22] = Cmax in CD-1 mouse at 5 mg/kg, po administered via gavage as single dose by LC-MS/MS analysis; format: ADME, organism-based; design: dose 5 mg/kg, route oral; conditions: in vivo
in vitro [23] = conditions: human, liver microsomes
Description: Half life in human liver microsomes at 1 uM in presence of NADPH by LC-MS/MS analysis

[24] = Thermodynamic solubility of the compound at pH 4 to 7.4 pION buffer after 18 hrs by UV spectrophotometric analysis; format: physicochemical; conditions: read-out: Therm_solubility
[25] = AUClast in CD-1 mouse at 1 mg/kg, iv administered as single dose by LC-MS/MS analysis; format: ADME, organism-based; design: dose 1 mg/kg, time 0 - last, route intravenous; conditions: in vivo
[26] = Apparent permeability of the compound across apical side to basolateral side in human Caco2 cells by LC-MS/MS analysis; format: ADME, cell-based; conditions: Caco-2
[27] = Clearance in CD-1 mouse at 1 mg/kg, iv administered as single dose by LC-MS/MS analysis; format: ADME, organism-based; conditions: in vivo
K562 [28] = test: Antitumor activity against human K562 cells overexpressing GFP-fussed full length mouse eIF4E xenografted in SCID mouse assessed as increase in tumor free animal at 100 mg/kg, po administered as qd via gavage for 14 days cotreated with 2.5 mg/kg dasatinib for 1 hr post dose; format: functional, organism-based
[29] = Protein binding in mouse plasma at […] after 5 hrs by LC-MS/MS analysis; format: ADME, cell-free; conditions: read-out: PPB (converted)
K562 [30] = test: Antitumor activity against human K562 cells overexpressing GFP-fussed full length mouse eIF4E xenografted in SCID mouse assessed as tumor growth inhibition at 2.5 mg/kg, po qd administered via gavage for 5 days on 2 days off per cycle for 2 cycles relative to control; format: functional; conditions: read-out: TGI
[31] = Oral bioavailability in mouse at 50 mg/kg; format: ADME, organism-based; conditions: in vivo
[32] = biological target: Receptor-type tyrosine-protein kinase FLT3 (Homo sapiens) (UniProt P36888); test: Inhibition of wild-type human partial length FLT3 (V592 to Y969 residues) expressed in bacterial expression system by Kinomescan method
[33] = biological target: Platelet-derived growth factor receptor beta (Homo sapiens) (UniProt P09619); test: Inhibition of wild-type human partial length PDGFRB (V582 to Y1009 residues) expressed in bacterial expression system at 1 uM by Kinomescan method relative to control
[34] = biological target: SRSF protein kinase 3 (Homo sapiens) (UniProt Q9UPE1); test: Inhibition of human SRPK3 (P41 to P567 residues) expressed in bacterial expression system at 1 uM by KINOMEscan assay relative to control
[35] = biological target: Platelet-derived growth factor receptor alpha (Homo sapiens) (UniProt P16234); test: Inhibition of wild-type human partial length PDGFRA (V575 to D1002 residues) expressed in mammalian expression system by Kinomescan method
[36] = biological target: Platelet-derived growth factor receptor alpha (Homo sapiens) (UniProt P16234); test: Inhibition of wild-type human partial length PDGFRA (V575 to D1002 residues) expressed in mammalian expression system at 1 uM by Kinomescan method relative to control
[37] = biological target: MAP kinase-interacting serine/threonine-protein kinase 2 (Homo sapiens, UniProt Q9HBH9)
Description: Inhibition of GST-tagged MNK2 (72 to 385 residues) (unknown origin) expressed in Escherichia coli BL21(DE3) using JH3 peptide as substrate preincubated for 10 mins followed by substrate and ATP addition measured after 60 mins

[38] = biological target: MAP kinase-interacting serine/threonine-protein kinase 1/2 (Homo sapiens, UniProt Q9HBH9+Q9BUB5); test: Inhibition of MNK1/2 in human HeLa cells assessed as decrease in eIF4E phosphorylation at Ser209 after 2 hrs by AlphaScreen assay; format: cell-based
[39] = biological target: Phosphorylase b kinase gamma catalytic chain, liver/testis isoform (Homo sapiens) (UniProt P15735); test: Inhibition of wild-type human partial length PHKG2 (M1 to W300 residues) expressed in bacterial expression system at 1 uM by Kinomescan method relative to control
[40] = biological target: MAP kinase-interacting serine/threonine-protein kinase 1 (Homo sapiens, UniProt Q9BUB5)
Description: Inhibition of GST-tagged MNK1 (37 to 341 residues) (unknown origin) expressed in Escherichia coli BL21(DE3) using JH3 peptide as substrate preincubated for 10 mins followed by substrate and ATP addition measured after 60 mins

[41] = biological target: Mast/stem cell growth factor receptor Kit (Homo sapiens) (UniProt P10721); test: Inhibition of wild-type human partial length KIT (I571 to D952 residues) expressed in bacterial expression system at 1 uM by Kinomescan method relative to control
[42] = biological target: Receptor-type tyrosine-protein kinase FLT3 (Homo sapiens) (UniProt P36888); test: Inhibition of wild-type human partial length FLT3 (V592 to Y969 residues) expressed in bacterial expression system at 1 uM by Kinomescan method relative to control
[43] = biological target: Serine/threonine-protein kinase 17A (Homo sapiens) (UniProt Q9UEE5); test: Inhibition of wild-type human partial length DRAK1 (R32 to E363 residues) expressed in bacterial expression system at 1 uM by Kinomescan method relative to control
Chain of Serine/threonine-protein kinase 17A (Homo sapiens) (Q9UEE5 whole entry, the tested form may be a part): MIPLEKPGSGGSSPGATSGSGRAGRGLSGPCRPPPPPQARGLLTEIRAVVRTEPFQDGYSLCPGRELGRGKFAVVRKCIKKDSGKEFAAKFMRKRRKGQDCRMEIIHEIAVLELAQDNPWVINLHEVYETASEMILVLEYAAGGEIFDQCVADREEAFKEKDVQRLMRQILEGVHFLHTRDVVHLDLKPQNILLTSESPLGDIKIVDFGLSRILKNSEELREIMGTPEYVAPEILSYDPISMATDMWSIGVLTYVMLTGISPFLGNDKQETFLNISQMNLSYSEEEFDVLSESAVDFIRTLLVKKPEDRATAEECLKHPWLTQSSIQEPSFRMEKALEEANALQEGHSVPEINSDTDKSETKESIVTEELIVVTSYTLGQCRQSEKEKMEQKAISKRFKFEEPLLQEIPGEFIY

Chain of Cytochrome P450 3A4 (P08684 whole entry): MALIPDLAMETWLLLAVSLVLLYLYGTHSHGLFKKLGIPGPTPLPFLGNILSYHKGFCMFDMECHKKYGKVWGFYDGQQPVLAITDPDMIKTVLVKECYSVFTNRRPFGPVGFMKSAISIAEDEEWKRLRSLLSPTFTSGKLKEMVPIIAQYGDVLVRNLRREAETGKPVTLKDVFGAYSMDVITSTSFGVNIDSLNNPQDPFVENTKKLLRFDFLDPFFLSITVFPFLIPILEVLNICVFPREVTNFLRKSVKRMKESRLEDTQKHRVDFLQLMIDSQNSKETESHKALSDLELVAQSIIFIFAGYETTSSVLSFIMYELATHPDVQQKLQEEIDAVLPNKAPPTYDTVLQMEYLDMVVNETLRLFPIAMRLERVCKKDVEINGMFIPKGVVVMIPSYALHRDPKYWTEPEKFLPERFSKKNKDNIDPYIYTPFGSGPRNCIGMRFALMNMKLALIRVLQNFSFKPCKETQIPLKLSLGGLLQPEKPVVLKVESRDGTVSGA
Chain of Cytochrome P450 2D6 (P10635 whole entry): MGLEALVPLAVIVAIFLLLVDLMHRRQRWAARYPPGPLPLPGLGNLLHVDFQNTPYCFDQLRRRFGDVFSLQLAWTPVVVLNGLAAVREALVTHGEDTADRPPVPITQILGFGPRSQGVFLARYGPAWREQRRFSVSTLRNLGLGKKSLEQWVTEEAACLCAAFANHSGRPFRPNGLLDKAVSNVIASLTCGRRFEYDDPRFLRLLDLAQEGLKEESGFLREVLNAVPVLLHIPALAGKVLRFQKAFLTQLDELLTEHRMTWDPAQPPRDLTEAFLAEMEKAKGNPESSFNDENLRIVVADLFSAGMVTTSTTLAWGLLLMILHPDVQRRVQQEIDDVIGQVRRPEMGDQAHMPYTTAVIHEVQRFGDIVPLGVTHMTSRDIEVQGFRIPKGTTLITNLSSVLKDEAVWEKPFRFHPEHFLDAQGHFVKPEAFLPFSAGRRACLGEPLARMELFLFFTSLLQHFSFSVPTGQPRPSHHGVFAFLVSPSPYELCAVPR
Chain of Receptor-type tyrosine-protein kinase FLT3 (Homo sapiens) (P36888 whole entry, the tested form may be a part): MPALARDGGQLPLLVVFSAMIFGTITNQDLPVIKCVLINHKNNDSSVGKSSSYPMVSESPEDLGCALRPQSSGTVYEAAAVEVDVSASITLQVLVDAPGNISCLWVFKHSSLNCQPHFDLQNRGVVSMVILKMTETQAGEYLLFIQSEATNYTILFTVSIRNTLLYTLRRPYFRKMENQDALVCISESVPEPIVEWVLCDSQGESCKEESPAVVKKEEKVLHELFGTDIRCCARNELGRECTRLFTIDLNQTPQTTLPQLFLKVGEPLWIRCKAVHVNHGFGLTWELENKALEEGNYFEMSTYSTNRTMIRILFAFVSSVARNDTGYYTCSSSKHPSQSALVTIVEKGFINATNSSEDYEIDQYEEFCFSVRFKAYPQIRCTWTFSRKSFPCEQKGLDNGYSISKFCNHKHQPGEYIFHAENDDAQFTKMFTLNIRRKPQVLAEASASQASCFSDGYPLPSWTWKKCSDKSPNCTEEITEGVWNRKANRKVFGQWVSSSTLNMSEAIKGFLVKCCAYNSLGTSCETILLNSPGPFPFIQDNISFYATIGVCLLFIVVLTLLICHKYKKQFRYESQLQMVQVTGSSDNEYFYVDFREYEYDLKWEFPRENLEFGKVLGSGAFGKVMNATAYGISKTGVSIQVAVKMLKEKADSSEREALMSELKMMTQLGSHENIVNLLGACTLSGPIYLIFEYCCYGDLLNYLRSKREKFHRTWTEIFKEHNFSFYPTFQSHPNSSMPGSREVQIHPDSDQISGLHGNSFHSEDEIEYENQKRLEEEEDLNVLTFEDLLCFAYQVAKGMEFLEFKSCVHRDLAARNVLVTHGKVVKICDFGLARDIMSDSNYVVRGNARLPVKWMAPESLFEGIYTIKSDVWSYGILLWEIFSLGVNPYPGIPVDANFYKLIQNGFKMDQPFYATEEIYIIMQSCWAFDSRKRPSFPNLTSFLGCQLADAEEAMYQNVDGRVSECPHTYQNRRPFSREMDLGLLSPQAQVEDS
Chain of Platelet-derived growth factor receptor alpha (Homo sapiens) (P16234 whole entry, the tested form may be a part): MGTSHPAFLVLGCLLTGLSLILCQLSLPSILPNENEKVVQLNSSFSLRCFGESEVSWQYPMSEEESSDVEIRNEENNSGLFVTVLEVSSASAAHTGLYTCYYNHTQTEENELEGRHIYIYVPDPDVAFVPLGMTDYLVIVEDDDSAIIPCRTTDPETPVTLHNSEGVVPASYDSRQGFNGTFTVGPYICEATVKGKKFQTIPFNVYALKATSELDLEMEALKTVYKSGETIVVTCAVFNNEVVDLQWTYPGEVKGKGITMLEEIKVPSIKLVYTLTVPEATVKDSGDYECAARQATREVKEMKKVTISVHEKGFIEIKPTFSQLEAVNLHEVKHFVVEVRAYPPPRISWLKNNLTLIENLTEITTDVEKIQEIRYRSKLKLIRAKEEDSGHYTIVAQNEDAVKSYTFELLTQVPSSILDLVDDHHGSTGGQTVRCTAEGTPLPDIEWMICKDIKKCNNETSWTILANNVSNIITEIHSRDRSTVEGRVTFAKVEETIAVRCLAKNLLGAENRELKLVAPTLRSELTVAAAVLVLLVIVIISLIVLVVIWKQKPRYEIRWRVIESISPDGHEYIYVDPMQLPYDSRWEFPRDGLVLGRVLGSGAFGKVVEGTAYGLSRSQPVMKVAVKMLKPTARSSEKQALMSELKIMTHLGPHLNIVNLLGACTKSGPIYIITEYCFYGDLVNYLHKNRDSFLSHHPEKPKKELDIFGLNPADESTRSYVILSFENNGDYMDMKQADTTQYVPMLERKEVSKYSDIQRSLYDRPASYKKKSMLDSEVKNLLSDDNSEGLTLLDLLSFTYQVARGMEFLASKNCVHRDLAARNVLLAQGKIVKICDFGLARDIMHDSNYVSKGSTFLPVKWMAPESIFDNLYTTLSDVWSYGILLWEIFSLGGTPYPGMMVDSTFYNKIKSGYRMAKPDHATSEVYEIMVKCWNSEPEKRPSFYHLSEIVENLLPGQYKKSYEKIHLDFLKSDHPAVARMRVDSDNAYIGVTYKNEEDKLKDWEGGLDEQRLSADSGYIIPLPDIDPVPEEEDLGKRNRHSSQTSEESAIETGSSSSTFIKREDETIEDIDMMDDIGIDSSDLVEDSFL
Chain of MAP kinase-interacting serine/threonine-protein kinase 2 (Q9HBH9 whole entry): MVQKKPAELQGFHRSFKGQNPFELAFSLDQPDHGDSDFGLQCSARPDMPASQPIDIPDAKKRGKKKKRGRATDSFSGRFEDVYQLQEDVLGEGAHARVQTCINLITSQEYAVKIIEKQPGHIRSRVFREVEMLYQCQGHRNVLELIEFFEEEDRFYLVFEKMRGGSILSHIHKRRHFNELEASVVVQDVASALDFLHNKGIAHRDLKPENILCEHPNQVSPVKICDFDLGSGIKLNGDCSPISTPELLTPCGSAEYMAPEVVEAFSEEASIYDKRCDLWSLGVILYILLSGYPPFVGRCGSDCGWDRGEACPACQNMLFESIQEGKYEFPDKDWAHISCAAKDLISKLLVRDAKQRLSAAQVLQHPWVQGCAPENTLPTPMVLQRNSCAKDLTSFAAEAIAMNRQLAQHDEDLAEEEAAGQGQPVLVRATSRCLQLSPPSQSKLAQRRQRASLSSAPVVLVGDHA
Chain of Phosphorylase b kinase gamma catalytic chain, liver/testis isoform (Homo sapiens) (P15735 whole entry, the tested form may be a part, canonical isoform): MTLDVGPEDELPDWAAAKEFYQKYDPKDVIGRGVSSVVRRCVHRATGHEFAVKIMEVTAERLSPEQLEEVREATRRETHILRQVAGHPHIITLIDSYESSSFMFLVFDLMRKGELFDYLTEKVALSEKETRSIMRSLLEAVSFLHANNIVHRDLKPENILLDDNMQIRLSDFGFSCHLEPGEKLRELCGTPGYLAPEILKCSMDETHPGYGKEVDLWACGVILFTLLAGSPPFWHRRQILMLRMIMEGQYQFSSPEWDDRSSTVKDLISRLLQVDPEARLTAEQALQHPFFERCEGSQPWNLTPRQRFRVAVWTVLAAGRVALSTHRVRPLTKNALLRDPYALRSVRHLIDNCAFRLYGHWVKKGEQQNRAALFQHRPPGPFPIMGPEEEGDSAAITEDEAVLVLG
Chain of SRSF protein kinase 3 (Homo sapiens) (Q9UPE1 whole entry, the tested form may be a part): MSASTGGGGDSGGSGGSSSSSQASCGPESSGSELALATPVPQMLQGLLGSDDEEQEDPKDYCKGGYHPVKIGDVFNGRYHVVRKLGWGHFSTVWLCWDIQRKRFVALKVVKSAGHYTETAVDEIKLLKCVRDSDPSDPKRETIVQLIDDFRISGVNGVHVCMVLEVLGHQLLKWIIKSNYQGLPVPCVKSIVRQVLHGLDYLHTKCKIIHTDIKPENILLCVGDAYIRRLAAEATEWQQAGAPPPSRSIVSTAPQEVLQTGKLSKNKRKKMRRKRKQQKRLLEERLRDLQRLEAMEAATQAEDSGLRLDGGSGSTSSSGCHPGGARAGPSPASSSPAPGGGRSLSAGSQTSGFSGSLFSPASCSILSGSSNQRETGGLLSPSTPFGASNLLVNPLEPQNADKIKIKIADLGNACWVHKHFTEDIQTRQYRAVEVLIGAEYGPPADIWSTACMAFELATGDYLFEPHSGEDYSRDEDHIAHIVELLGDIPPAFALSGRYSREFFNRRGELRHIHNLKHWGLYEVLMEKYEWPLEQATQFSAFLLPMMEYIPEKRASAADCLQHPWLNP

| Structure (SMILES) | bioavailability [1] [%] | half-life [2] [h] | half-life at 1 µM (in vitro [3]) [h] | C0 [4] [ng/mL] | IC50 (Cytochrome P450 3A4) [µM] | AUC(0-t) [5] [ng·h/mL] | Activity (P3HR-1) | half-life at 1 µM [6] [h] | Activity (Homo sapiens [8]) | Activity (Homo sapiens [11]) | logD [12] | half-life at 1 µM (in vitro [13]) [h] | fraction unbound at 5 h [14] | half-life [20] [h] | Papp [21] [×10⁻⁶ cm/s] | IC50 (Cytochrome P450 2D6) [µM] | half-life at 1 µM (in vitro [23]) [h] | solubility thermodynamic at 18 h [24] [µg/mL] | Papp A→B [26] [×10⁻⁶ cm/s] | fraction unbound at 5 h [29] | also measured |
| --- | --- | --- | --- | --- | --- | --- | --- | --- | --- | --- | --- | --- | --- | --- | --- | --- | --- | --- | --- | --- | --- |
| N#Cc1ccc(-c2cnc3ccc(-c4ccc(C(=O)N5CCOCC5)cc4)cn23)cc1 [TINODASERTIB] | 64 | 1.7 | 0.933 | 2380 | > 20 | 5480 | Active | > 1 | Active | Active | 2.61 | > 1 | 0.003 | 1.77 | 74.4 | > 20 | 0.8 | 55.4 (≈ 136 µM) | 30.5 | 0.158 | inhibition [7]: > 65%; TGI (K562 [9]): Dose-dependent effect; Activity (Mus musculus [10]): Active; Activity (Mus musculus [15]): Active; Activity (Mus musculus [16]): Non-Toxic; Tmax (in vivo): 0.5 h; Activity (Mus musculus [17]): Non-Toxic; Activity (Mus musculus [18]): Non-Toxic; inhibition in vivo at 100 mg/kg (K562 [19]): 23%; Activity (DOHH-2): Active; Cmax [22]: 2480 ng/mL; AUC(0-t) [25]: 1760 ng·h/mL; clearance [27]: 9.33 mL/min/kg; Activity (K562 [28]): Active |
| Cc1nc(Nc2ncc(C(=O)Nc3c(C)cccc3Cl)s2)cc(N2CCN(CCO)CC2)n1 [DASATINIB] |  |  |  |  |  |  |  |  |  |  |  |  |  |  |  |  |  |  |  |  | inhibition in vivo at 2.5 mg/kg (K562 [30]): 88% |
| CN1CCN(C(=O)c2ccc(-c3cn4c(-c5ccc(C#N)cc5)cnc4cn3)cc2)CC1 |  |  | 0.617 |  | > 20 |  |  |  |  |  | 1.67 |  | 0.016 |  | 102 | > 20 | 0.683 | > 125 | 6.87 | 0.129 | bioavailability [31]: 48% |
| N#Cc1ccc(-c2cnc3ccc(-c4ccc(C(=O)N5CCOCC5)cc4)nn23)cc1 | 79 | 2.32 | > 1 | 2940 | > 20 | 24100 | Active | > 1 | Active | Active | 2.1 | > 1 | 0.001 | 2.14 | 30 | > 20 | 0.883 | 1.8 (≈ 4.4 µM) | 38.5 | 0.055 | INH [32]: 0.88 µM; inhibition [33]: > 65%; inhibition [34]: > 65%; INH [35]: 0.25 µM; inhibition [36]: > 65%; IC50 [37]: 0.041 µM; IC50 [38]: 0.421 µM; inhibition [39]: > 65%; IC50 [40]: 0.023 µM; inhibition [41]: > 65%; inhibition [42]: > 65%; Activity (DOHH-2): Active; inhibition [43]: > 65%; Cmax [22]: 4400 ng/mL; AUC(0-t) [25]: 6120 ng·h/mL; clearance [27]: 2.67 mL/min/kg |

Reference: ChEMBL document CHEMBL4184320, “Optimization of Selective Mitogen-Activated Protein Kinase Interacting Kinases 1 and 2 Inhibitors for the Treatment of Blast Crisis Leukemia” (J Med Chem, 2018)
